According to US20090176996A1, “PROCESS FOR THE PREPARATION OF SULFAMIDE DERIVATIVES” (priority 2008, published 2009):

Compound `NS(=O)(=O)NCc1ccccc1` (hydrate or solvate) [Example 5, Benzylsulfamide] has a melting point of 102 to 104 °C.
